Results: publication PMC11001683 (European Journal of Clinical Pharmacology, 2024)

Experiments:
[1] = ACD855 Phase I SAD study, cohort 1, plasma pharmacokinetics; assay type: in vivo; details: human, 1 mg oral
Protocol: (§1) The clinical efficacy, safety, and pharmacokinetics (PK) of ACD855 have been evaluated in various domestic animals for the use as a veterinary drug. […] Based on pharmacology studies in rodents and safety studies in rat and dog, the first oral dose in an initiated Phase I single ascending dose (SAD) study (EudraCT No. 2018-002320-16), in healthy volunteers was set to 1 mg. […] The study was prematurely terminated after interim PK analysis of the first cohort, and long-term follow-up of the dosed subjects was performed.

[2] = ACD855 mutagenic/genotoxic potential
Protocol: as §1

[3] = mice; cited from earlier work
[4] = design: method as in PMID 37394539; details: cited from earlier work
[5] = ACD855 clinical signs in dogs; assay type: in vivo
[6] = Allometric scaling prediction of ACD855 elimination half-life in man; design: species or system human
Protocol: as §1

concentration at 280 days ([1]; all subjects but one, detection limit 1 ng/mL, read-out: plasma level at 280 days): > 1 ng/mL | half-life ([1]; cohort 1, healthy volunteers, read-out: elimination half-life in plasma in humans, average (converted)): 68 days | notable clinical signs in dogs [5]: gastrointestinal disturbance | predicted elimination half-life in man [6]: 4.6 days
Compound: Cc1cc(-n2c(=O)[nH]c(=O)n(C)c2=O)ccc1Oc1ccc(S(=O)(=O)C(F)(F)F)cc1 [ACD855, Ponazuril]
mutagenic or genotoxic potential [2]: no indication of any mutagenic or genotoxic potential | effect in preclinical in vivo cognition models [3]: pro-cognitive effects | effect in the forced swim test model [4]: anti-depressant-like effects
